Results: patent US20020119496A1, “Nuclear magnetic resonance screening method” (priority 2000, published 2002)

Target: T1, human muscle fatty acid binding protein M-FABP (Homo sapiens, UniProt P05413)
T1 construct: a plasmid containing the gene coding for a 143 amino acid protein construct of M-FABP; His-tag (C); made in house; host or cells: prototrophic Escherichia coli
Experiment: Site-selective NMR screening, 1H-15N fHSQC of 13C'-Val, 15N-Ala labeled M-FABP
Settings: 1:1 mixture with M-FABP, 200 μM protein
Method: The spectra were recorded at 20° C. on a 600 MHz Varian Unity INOVA NMR spectrometer using standard techniques. The sample was prepared in 20 mM sodium phosphate buffer (10% D2O/90% H2O) pH 7.4 containing 50 mM NaCl, 10 mM DTT and 0.02% NaN3. […] (a) 2D ^1H-^15N fast-HSQC (Mori et al., 1995), (b) 2D HNCO and (c) 1D HNCO. […] Experimental times were 1 hour, 4 hours, and 20 minutes respectively.
Experimental conditions were identical to those described in FIG. 8 except the samples used for spectra b-d contained additionally 1% d-DMSO. (a-d) Reference spectrum of free M-FABP. (b) 1:1 mixture of M-FABP and compound cocktail. (c) 1:1 mixture M-FABP and compound cocktail omitting oleic acid. (d) 1:1 mixture of M-FABP and oleic acid.

T1 sequence (P05413 whole entry): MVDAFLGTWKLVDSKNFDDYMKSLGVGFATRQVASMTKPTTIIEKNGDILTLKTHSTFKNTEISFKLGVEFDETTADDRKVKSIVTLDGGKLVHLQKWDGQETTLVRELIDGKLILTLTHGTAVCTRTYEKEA

CCCCCCCC/C=C\CCCCCCCC(=O)O [oleic acid]
chemical shift change of alanine 33 HSQC cross peak: chemical shift change is observed
